Laboratory results: ChEMBL document CHEMBL1127721, “EPSP synthase inhibitor design IV. New aromatic substrate analogs and symmetrical inhibitors containing novel 3-phosphate mimics” (Bioorg Med Chem Lett, 1994)

Biological target: T1, 3-phosphoshikimate 1-carboxyvinyltransferase (Escherichia coli K-12, UniProt P0A6D3)
T1 sequence (P0A6D3 whole entry): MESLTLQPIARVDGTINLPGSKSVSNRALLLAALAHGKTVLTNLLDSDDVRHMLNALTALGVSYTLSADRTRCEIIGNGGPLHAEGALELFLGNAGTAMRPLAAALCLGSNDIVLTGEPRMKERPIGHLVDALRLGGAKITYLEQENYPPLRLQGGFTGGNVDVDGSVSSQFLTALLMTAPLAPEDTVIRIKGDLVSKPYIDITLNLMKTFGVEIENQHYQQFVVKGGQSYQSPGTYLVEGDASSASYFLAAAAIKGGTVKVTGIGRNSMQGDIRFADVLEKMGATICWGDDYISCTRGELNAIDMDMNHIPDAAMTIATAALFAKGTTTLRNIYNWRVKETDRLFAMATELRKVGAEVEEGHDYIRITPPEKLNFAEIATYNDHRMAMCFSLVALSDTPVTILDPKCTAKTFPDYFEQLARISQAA
Test: Inhibition of Escherichia coli EPSP synthase

IC50 [µM]	Ki [µM]	Ki (read-out: Ki app) [µM]	Compound
3000			O=C(O)c1cc(CP(=O)(O)O)cc(CP(=O)(O)O)c1
100	1.5		O=C(O)CO[C@@H]1CC(C(=O)O)=C[C@@H](OP(=O)(O)O)[C@@H]1O
> 80000			O=C(O)c1cc(O)cc(CP(=O)(O)O)c1
10000			O=C(O)c1cc(O)cc(OC(C(=O)O)C(=O)O)c1
1400			O=C(O)COc1cc(OP(=O)(O)O)cc(C(=O)O)c1
10000			O=C(O)COc1cc(CP(=O)(O)O)cc(C(=O)O)c1
210		2.5	O=C(O)c1cc(OC(C(=O)O)C(=O)O)cc(OC(C(=O)O)C(=O)O)c1
20	0.16		O=C(O)c1cc(OC(C(=O)O)P(=O)(O)O)cc(OP(=O)(O)O)c1 (stereo not drawn)
2000			O=C(O)COc1cc(OC(C(=O)O)C(=O)O)cc(C(=O)O)c1
10000			O=C(O)COc1cc(C(=O)O)cc(P(=O)(O)O)c1
85		0.78	O=C(O)c1cc(OP(=O)(O)O)cc(OP(=O)(O)O)c1
7900			O=C(O)c1cc(O)cc(OP(=O)(O)O)c1

Compound	IC50 [µM]	Ki [µM]	Ki (read-out: Ki app) [µM]
O=C(O)COc1cc(C(=O)O)cc(C(O)P(=O)(O)O)c1 (stereo not drawn)	3000		
O=C(O)c1cc(O)cc(C(O)P(=O)(O)O)c1 (stereo not drawn)	10000		
